From patent publication US12162864B2, “Condensed-cyclic compound” (Takeda Pharmaceutical Company Limited, priority 2018, dated 2024)

Assays:
human M1 receptor = target: T1, human M1 receptor (Homo sapiens, UniProt P11229); assay: Measurement of M1 receptor positive allosteric modulator (M1PAM) activity; type: cell-based; details: PAM activity in presence of acetylcholine at EC20 concentration; CHO-K1 cells stably expressing human M1 receptor; IP1 time-resolved fluorescence
T1 construct: expressed in transfected cells; host or cells: CHO-K1
T1 sequence (P11229 1-460): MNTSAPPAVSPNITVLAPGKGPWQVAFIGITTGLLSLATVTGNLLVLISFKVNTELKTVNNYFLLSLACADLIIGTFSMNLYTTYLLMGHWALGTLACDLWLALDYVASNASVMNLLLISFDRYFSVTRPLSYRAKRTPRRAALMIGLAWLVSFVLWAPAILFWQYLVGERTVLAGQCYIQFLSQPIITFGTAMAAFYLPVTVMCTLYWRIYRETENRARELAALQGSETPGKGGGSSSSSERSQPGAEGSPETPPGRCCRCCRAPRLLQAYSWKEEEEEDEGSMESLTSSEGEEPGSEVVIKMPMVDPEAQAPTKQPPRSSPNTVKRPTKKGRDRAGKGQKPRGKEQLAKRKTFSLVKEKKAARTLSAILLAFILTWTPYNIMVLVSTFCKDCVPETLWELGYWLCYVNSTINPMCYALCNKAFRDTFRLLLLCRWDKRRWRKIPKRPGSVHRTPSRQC
Protocol: Measurement of M1 Receptor Positive Allosteric Modulator (M1PAM) Activity
The activity of a test compound in the presence of acetylcholine at an EC20 concentration affording about 20% action of the maximum activity was measured as PAM activity. The method therefor is as follows. To a 384-well white plate (Greiner™) was added 4 μL of the test compound diluted with IP1 Stimulation buffer (CisBio™) containing 0.1% fatty acid-free BSA containing 80 nM acetylcholine. Freeze stock of CHO-K1 cells stably expressing human M1 receptor (hCHRMl) was prepared with IP1 Stimulation buffer (CisBio™) containing 0.1% fatty acid-free BSA, 4 μL thereof was added (10,000 cells/well) and the mixture was cultured in a 5% CO2 incubator at 37° C. for 1 hr. 4 μL of a solution (CisBio™) containing IP1-d2 and Anti-IP1-cryptate Tb conjugate was added the mixture was incubated at room temperature for 1 hr, and the time-resolved fluorescence signal was measured on an Envision plate reader (Perkin Elmer™). The activity (%) of the test compound was calculated by defining the value when acetylcholine was added at the final concentration of 20 μM as 100% and the value when DMSO was added instead of the test compound under acetylcholine-free conditions as 0%, and the EC50 value was calculated as a value of 50% of the concentration dependence curve of the test compound.

Male SD rats = assay: Rat defecation experiment; type: in vivo; details: oral, mean±standard error
Protocol: Rat Defecation Experiment
Male SD rats (5-6 weeks old) were used after an acclimation period for about 1 week. A test drug (1 mg/kg or 3 mg/kg) was suspended in 0.5% methylcellulose solution and orally administered at a volume of 5 mL/kg, and the number of feces for 2 hr later was counted. Only 0.5% methylcellulose was administered to a solvent administration group.

MDR1 = target: T2, MDR1 (Homo sapiens, UniProt P08183); assay: MDR1 membrane permeability test; type: in vitro ADME; details: pH 7.4, human MDR1-expressing LLC-PK1 cells, 10 μmol/L test compound, read-out: Efflux ratio (ER)
T2 construct: expressed in transfected cells
Protocol: MDR1 Membrane Permeability Test
When MDR1 is expressed in excess in LLC-PK1 cell, which is a polar cell, MDR1 is localized in apical membrane (A), thus promoting transcellular transport from the basement membrane side (B) toward direction A. When a ratio to the transcellular transport in the opposite direction is taken and a ratio to a control cell in which a mock vector has been introduced is further taken, an efflux ratio of MDR1 to simple diffusion (corrected efflux ratio) is calculated. Similarly, when a brain/plasma concentration ratio in Mdr1(−/−) mouse is divided by a brain/plasma concentration ratio in wild-type mouse, an efflux ratio of Mdr1 to simple diffusion in blood-brain barrier (BBB) (Kp, brain ratio, higher value means lower central nervous system permeability) is calculated. Adachi Y. et al. (Reference 1) has reported a positive correlation between corrected efflux ratio and Kp, brain ratio (FIG. 5(C)), and efflux ratio in MDR1 expressing cell and Kp, brain ratio (FIG. 5(B)).
To confirm the central nervous system permeability of the compounds of the present invention, a MDR1 membrane permeability test was performed by the following method.
Digoxin and lucifer yellow (LY) were purchased from Sigma-Aldrich™, Diclofenac, colchicine and alprenolol were purchased from Wako Pure Chemical Industries, Ltd., and other reagents used were commercially available products of special grade.
Human MDR1-expressing LLC-PK1 cells were cultured according to the report of Takeuchi et al. (Reference 2). Human MDR1-expressing LLC-PK1 cells were cultured in 10% fetal bovine serum (Invitrogen™), 500 μg/ml G418 (Invitrogen™), 150 ng/ml colchicine-containing M199 medium (Invitrogen™) under 5% CO2 conditions at 37° C.
Transcellular transport was performed according to the report of Sugimoto et al. (Reference 3). The cells were cultured for 3 days on HTS Transwell™ (registered trademark) 96 well permeable support (pore size 0.4 μm, 0.143 cm^2 surface area, Corning Life Sciences) having polyethylene terephthalate membrane on which the cells had been seeded at 3.45×10^4 cells/well. After preincubation in M199 medium (containing 10 mmol/L HEPES, 1% BSA, pH 7.4) for 30 min, a drug solution (10 μmol/L digoxin, 200 μmol/L LY, 10 μmol/L test compound) dissolved in M199 medium was added to the apical side or basolateral side of the Transwell™ by 75 or 250 μL each and the cells were cultured under 5% CO2 conditions at 37° C. After 1 hr, the sample was collected from the side opposite to the side where the drug solution was added, and the concentration of the test compound was measured by LC-MS/MS. As an internal standard substance, 100 ng/mL alprenolol and diclofenac were used. The analysis conditions were as follows. • LC: UFLC LC-20 (Shimadzu™) • MS/MS: API4000 (AB Sciex™ Instruments) • LC condition: gradient method
• Column: Unison UK-C18 HT (3.0 μm, 2.0×20 mm) • Column temperature: 50° C. • Flow rate: 0.7 mL/min (for 1.5 min run), 1.0 mL/min (for 1.0 min run) • Mobile phase A: 50 mM CH3COONH4:MeCN:water=1:1:8 • Mobile phase B: 50 mM CH3COONH4:MeCN=1:9 • Injection volume: 1-20 μL
LY was measured by a fluorescence plate reader (Fluoroskan Ascent FL).
Papp, A to B and Papp, B to A (apparent permeability) were calculated from the formula (1), and the efflux ratio (ER) was calculated from the formula (2).
[formula] • Amount: amount of transported digoxin/well • Area: surface area of cell monolayer (0.143 cm^2) • C0: concentration of drug solution added • Time: incubation time

T2 sequence (P08183 whole entry): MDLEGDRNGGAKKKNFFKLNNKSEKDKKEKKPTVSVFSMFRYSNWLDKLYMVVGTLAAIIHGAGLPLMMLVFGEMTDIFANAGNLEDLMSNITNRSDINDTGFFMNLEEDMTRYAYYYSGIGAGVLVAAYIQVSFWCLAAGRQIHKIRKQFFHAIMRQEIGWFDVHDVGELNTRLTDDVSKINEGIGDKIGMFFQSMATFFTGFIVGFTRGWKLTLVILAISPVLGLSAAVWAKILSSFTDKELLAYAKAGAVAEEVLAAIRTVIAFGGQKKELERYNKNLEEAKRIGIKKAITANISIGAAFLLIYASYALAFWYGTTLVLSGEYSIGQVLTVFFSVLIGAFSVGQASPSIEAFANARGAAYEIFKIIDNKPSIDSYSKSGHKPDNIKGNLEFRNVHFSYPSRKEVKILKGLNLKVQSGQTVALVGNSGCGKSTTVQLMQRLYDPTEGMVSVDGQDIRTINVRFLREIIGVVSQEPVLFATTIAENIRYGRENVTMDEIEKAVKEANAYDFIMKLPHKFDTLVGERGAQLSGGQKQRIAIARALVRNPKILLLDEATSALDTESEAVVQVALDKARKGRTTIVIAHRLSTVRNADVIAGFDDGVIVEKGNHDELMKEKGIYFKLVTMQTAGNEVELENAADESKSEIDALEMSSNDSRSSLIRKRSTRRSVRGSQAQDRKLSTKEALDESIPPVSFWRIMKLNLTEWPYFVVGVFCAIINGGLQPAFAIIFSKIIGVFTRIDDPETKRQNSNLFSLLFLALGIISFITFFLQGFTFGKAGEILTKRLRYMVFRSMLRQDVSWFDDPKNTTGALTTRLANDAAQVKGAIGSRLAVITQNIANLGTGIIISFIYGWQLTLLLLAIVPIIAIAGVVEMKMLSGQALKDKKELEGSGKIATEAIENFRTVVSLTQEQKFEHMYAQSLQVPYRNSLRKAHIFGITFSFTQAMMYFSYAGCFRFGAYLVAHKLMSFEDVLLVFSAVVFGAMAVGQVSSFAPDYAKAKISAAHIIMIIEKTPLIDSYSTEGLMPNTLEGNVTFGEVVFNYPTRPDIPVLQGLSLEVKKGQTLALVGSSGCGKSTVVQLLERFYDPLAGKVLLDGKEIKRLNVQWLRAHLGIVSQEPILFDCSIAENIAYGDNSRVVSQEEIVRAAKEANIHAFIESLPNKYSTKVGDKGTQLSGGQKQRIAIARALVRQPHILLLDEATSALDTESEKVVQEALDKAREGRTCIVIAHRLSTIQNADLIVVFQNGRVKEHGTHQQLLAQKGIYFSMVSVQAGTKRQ

Row | Compound | EC50 (human M1 receptor) [nM] | number of feces 2 hr later (Male SD rats; 1 mg/kg) | number of feces 2 hr later (Male SD rats; 3 mg/kg) | efflux ratio at 1 h, 10 μmol/L (MDR1)
1 | Cn1cnc(-c2ccc(Cc3cc(C(=O)N[C@H]4CCOC[C@@H]4O)c(F)c4c3OCC4)cc2)c1 [Example 5, 1,5-anhydro-2,3-dideoxy-3-(((4-fluoro-7-(4-(1-methyl-1H-imidazol-4-yl)benzyl)-2,3-dihydro-1-benzofuran-5-yl)carbonyl)amino)-L-threo-pentitol] | 3.7 | 6.3 ± 0.7 | 8.7 ± 1.2 | 7.3
2 | Cn1cc(-c2ccc(Cc3cc(C(=O)N[C@H]4CCOC[C@@H]4O)c(F)c4c3OCC4)cn2)cn1 [Example 6, 1,5-anhydro-2,3-dideoxy-3-(((4-fluoro-7-((6-(1-methyl-1H-pyrazol-4-yl)pyridin-3-yl)methyl)-2,3-dihydro-1-benzofuran-5-yl)carbonyl)amino)-L-threo-pentitol] | 2 | 6.6 ± 0.9 | – | 18
3 | COCCNC(=O)c1ccc(Cc2cc(C(=O)N[C@H]3CCOC[C@@H]3O)c(F)c3c2OCC3)cc1F [Example 13, 1,5-anhydro-2,3-dideoxy-3-(((4-fluoro-7-(3-fluoro-4-((2-methoxyethyl)carbamoyl)benzyl)-2,3-dihydro-1-benzofuran-5-yl)carbonyl)amino)-L-threo-pentitol] | 4.2 | 9.9 ± 1.6 | – | 10
4 | CCOCCNC(=O)c1ccc(Cc2cc(C(=O)N[C@H]3CCOC[C@@H]3O)c(F)c3c2OCC3)cc1F [Example 14, 1,5-anhydro-2,3-dideoxy-3-(((7-(4-((2-ethoxyethyl)carbamoyl)-3-fluorobenzyl)-4-fluoro-2,3-dihydro-1-benzofuran-5-yl)carbonyl)amino)-L-threo-pentitol] | 20 | 6.8 ± 1.3 | 10.4 ± 1.1 | 9.3
5 | CNC(=O)c1ccc(Cc2cc(C(=O)N[C@H]3CCOC[C@@H]3O)c(OC)c3c2OCC3)cc1F [Example 31, 1,5-anhydro-2,3-dideoxy-3-(((7-(3-fluoro-4-(methylcarbamoyl)benzyl)-4-methoxy-2,3-dihydro-1-benzofuran-5-yl)carbonyl)amino)-L-threo-pentitol] | 18 | 5.9 ± 0.9 | – | 28
6 | COCCCNC(=O)c1ccc(Cc2cc(C(=O)N[C@H]3CCOC[C@@H]3O)c(OC)c3c2CCC3)cc1F [Example 60, 1,5-anhydro-2,3-dideoxy-3-(((7-(3-fluoro-4-((3-methoxypropyl)carbamoyl)benzyl)-4-methoxy-2,3-dihydro-1H-inden-5-yl)carbonyl)amino)-L-threo-pentitol] | 17 | 6.9 ± 1.2 | 11.4 ± 1.2 | 15
